Measurements as given in patent US10028992B2, “Methods of treating muscular dystrophy” (BOARD OF REGENTS OF THE NEVADA SYSTEM OF HIGHER EDUCATION …, priority 2012, dated 2018).
Several values for one entry are separate records, joined by “and”; a condition that tells them apart may be missing. Equal entries are not always repeated. Where two headings read alike, the source gives them in different places.

Test system: α7 integrin promoter
Experiment: muscle cell-based assay: α7βgal+/− myoblasts/myotubes, LacZ reporter, β-galactosidase cleavage of FDG
Design: species or system mouse
Details: for AC50 / Fit HillSlope / Fit Zero Activity [%] / Fit Curve Class: Table 12; for AC50: log of AC50, given with negative sign, unit of AC50 not given, read-out: Fit Log AC50 (converted); for Emax: read-out: Max Response [%]; for Fit HillSlope: curve fit; for Fit Zero Activity [%]: fitted activity at zero concentration; for Fit Curve Class: key not given; for Score: Table 12 Compound data, concentration-response curve fit
Method: An α7 integrin null mouse was produced in which exon 1 of the gene encoding the α7 integrin was replaced by the LacZ reporter. In these mice, all the transcriptional regulatory elements of the α7 integrin promoter were retained, allowing β-galactosidase to report expression of 7 integrin. A primary myoblast cell line (designated α7βgal^+/−) isolated from 10 day old α7^+/− pups were analyzed for the ability of β-galactosidase to report α7 integrin expression. α7βgal^+/− myoblasts were differentiated and subjected to X-gal staining and western analysis (FIGS. 1A and 1B).
The activity of the α7 integrin promoter was measured by β-galactosidase cleavage of the non-fluorescent compound fluorescein di-β-D-galactopyranoside (FDG) to fluorescein. This assay was used to screen compound libraries to identify molecules that up-regulate α7 integrin expression in muscle.
Also evaluated was the effect of various isoforms of laminin and the ligand for α7β1 integrin on integrin expression. Positive hits were subjected to dose-response analysis, western analysis and a myostatin counterscreen (a negative regulator of muscle growth).

Compound	Results in a α7+/− β-galactosidase assay, Myotubes, 0.5 uM	Results in a α7+/− β-galactosidase assay, Myotubes, 1 uM	Results in a α7+/− β-galactosidase assay, Myotubes, 5 uM	Results in a α7+/− β-galactosidase assay, Myotubes, 10 uM	Results in a α7+/− β-galactosidase assay, Myotubes, 20 uM	Results in a α7+/− β-galactosidase assay, Myotubes, 40 uM	AC50 (Mus musculus) [nM]	Emax (Mus musculus) [%]	Fit HillSlope	Fit Zero Activity [%]	Fit Curve Class	Score	further results
O=C(COc1ccc(Cl)cc1)N1CCN(C2CCCC2)CC1.O=C(O)C(=O)O	0.1096	0.06035	−0.07324	−0.04013	−0.1813	−0.2711							
O=C(Nc1ccccc1Cl)C1CCCN1C(=O)OCc1ccccc1 (stereo not drawn)	−0.04746	−0.07012	−0.00214	−0.05774	−0.1932	−0.2694							
C#CC1(O)CCC2C3CCC4=C/C(=N/OCC(=O)NCC(=O)NC(C(=O)O)C(C)C)CC[C@]4(C)C3CC[C@@]21C (stereo partly drawn)	0.1086	0.2546	0.3822	0.2484	0.1342	0.073							
O=C1Nc2ccccc2/C1=C/c1c[nH]cn1	−0.09659	0.04801	0.2975	0.1108	0.1916	0.1189							
Cc1ccc(NS(=O)(=O)c2cccc(C(=O)O)c2)cc1S(=O)(=O)N1CCOCC1													Results in a α7+/− β-galactosidase assay, Myotubes, 5 uM (Myotubes, compound at 5 uM): 0.6308 and 0.5052
COc1cc([N+](=O)[O-])cc(/C=N/NC(=O)C(O)(c2ccccc2)c2ccccc2)c1O	0.1119	−0.01127	−0.4224	−0.4434	−0.2622	−0.3132							
Cc1cc(C2CCCCC2)n(O)c(=O)c1 [Ciclopirox ethanolamine, ciclopirox ethanolamine, reference compound]													EC50 (Mus musculus, enhancement of α7 integrin expression in muscle cells, read-out: EC50): 0.6 µg/mL; Optimal Concentration (enhancement of α7 integrin expression in muscle cells): 4 µg/mL
CC(OC(=O)c1cc(-c2cccnc2)nc2ccccc12)C(=O)Nc1ccc2ccccc2c1 (stereo not drawn) [Compound 1]							1120	191	3.132	−2.9752	1.1	94	Activity at 0.307 μM [%] ** (0.307 μM): 0%
Cc1cccc(OCc2nc(C#N)c(N3CCCC3)o2)c1 [Compound 2]							3550	223	1.4163	3.1995	1.1	91	Activity at 7.660 μM [%] ** (7.660 μM): 175.022%
COc1ccccc1-c1coc2c3c(ccc2c1=O)OC1CCCCN1C3 (stereo not drawn) [Compound 3]							2240	159	3.0654	−35.3084	1.1	89	
Cc1ccccc1C(=O)Nc1scc(-c2ccc(Br)cc2)c1C(=O)O [Compound 4]							2820	137	1.8617	7.6069	1.1	87	
COc1cc2c(cc1NC(=O)Cc1ccc(C)cc1)oc1ccccc12 [Compound 5]							1120	87.1	2.5334	−5.0637	1.1	86	Activity at 38.30 μM [%] ** (38.30 μM): 87.1241%
COCc1c(C(=O)OCc2nc(=O)c3sccc3[nH]2)oc2ccccc12 [Compound 6]							1120	68.1	1.3437	−58.5311	1.1	85	
O=C(NC1CCCC1)c1ccc(CS(=O)(=O)Cc2ccccc2F)o1 [Compound 7]							4470	105	1.6924	12.5	1.1	85	
CN(C)S(=O)(=O)c1cccc(C(=O)Nc2ccc3c(c2)CCC3)c1 [Compound 8]							2820	94.3	4.9549	−15.6523	1.1	85	
